Experimental data published in patent EP4775580A1, “COMPOUND, PHARMACEUTICAL COMPOSITION COMPRISING SAME, AND USE THEREOF” (Euregen Biopharma Co., Ltd., priority 2023, dated 2025).
Substitutions are numbered along the chain they refer to.

Key:
MV-4-11 cells = experiment: Antiproliferative activity, CellTiter-Glo, 7 days (Test Example 2), MV-4-11; assay type: cell-based; conditions: Homo sapiens, MV4-11, 168 h, 7 days incubation
Excerpt: [0134] 1. Experimental Principle: MV-4-11, Molm-13, and OCI-AML-3 cells are human hematologic tumor cell lines harboring the Menin-MLL fusion. HL-60 is a wild-type human hematologic tumor cell line without Menin-MLL fusion. […] 2. Experimental Materials: MV-4-11, Molm-13, OCI-AML-3, and HL-60 cells were all purchased from Cobioer; CellTiter-Glo® was purchased from Promega (Cat. #G7571); RPMI-1640 was purchased from Viva Cell (Cat. #C3010-0500); IMDM was purchased from Viva Cell (Cat. #C3040-0500); fetal bovine serum (FBS) was purchased from Biosera (Cat. #FB-1058/500); penicillin-streptomycin was purchased from BasalMedia (Cat. #S110JV); 0.25% Trypsin-EDTA was purchased from BasalMedia (Cat. #S310KJ); dimethyl sulfoxide (DMSO) was purchased from Sinopharm (Cat. #30072418); 96-well plates were purchased from Corning (Cat. #3610); incubator was obtained from PHCbi (Model: MCO-18AC); inverted microscope was obtained from Mingmei (Cat. #MI52-0); automated cell counter was obtained from BodBoge (Model: JSY-SC-031N); microplate reader was obtained from PerkinElmer (Model: Envision); data processing software: GraphPad Prism 8.0. 3. Experimental Methods: Four cell lines in logarithmic growth phase were resuspended in their respective growth media (MV-4-11: IMDM + 20% FBS; Molm-13: RPMI-1640 + 20% FBS; OCI-AML-3: RPMI-1640 + 20% FBS; HL-60: RPMI-1640 + 10% FBS) and diluted to target densities (12,500, 6,250, 12,500, and 12,500/mL, respectively). The cell suspensions were seeded into 96-well plates at 80 µL per well and incubated overnight at 37°C in a 5% CO2 incubator. Culture medium served as the background control. Test compounds were dissolved in DMSO to prepare 10 mmol/L stock solutions. The stock solutions were first diluted to 2 mmol/L with DMSO, followed by 4-fold serial dilutions to generate 10 concentrations. From each concentration, 2 µL was diluted with 78 µL growth medium. […] After incubation at room temperature for 10 minutes, luminescence values were read using the EnVision microplate reader, and IC50 values were calculated using GraphPad Prism 8.0 software. […]

Menin-T349M = molecular target: T1, Menin-T349M (Homo sapiens, UniProt O00255, T344M); experiment: Fluorescence polarization assay of Menin binding to MLL peptide, T349M mutant; conditions: FP, 8 nM Menin, 4 nM MLL peptide
T1 sequence (O00255 1-615 isoform O00255-1 T349M): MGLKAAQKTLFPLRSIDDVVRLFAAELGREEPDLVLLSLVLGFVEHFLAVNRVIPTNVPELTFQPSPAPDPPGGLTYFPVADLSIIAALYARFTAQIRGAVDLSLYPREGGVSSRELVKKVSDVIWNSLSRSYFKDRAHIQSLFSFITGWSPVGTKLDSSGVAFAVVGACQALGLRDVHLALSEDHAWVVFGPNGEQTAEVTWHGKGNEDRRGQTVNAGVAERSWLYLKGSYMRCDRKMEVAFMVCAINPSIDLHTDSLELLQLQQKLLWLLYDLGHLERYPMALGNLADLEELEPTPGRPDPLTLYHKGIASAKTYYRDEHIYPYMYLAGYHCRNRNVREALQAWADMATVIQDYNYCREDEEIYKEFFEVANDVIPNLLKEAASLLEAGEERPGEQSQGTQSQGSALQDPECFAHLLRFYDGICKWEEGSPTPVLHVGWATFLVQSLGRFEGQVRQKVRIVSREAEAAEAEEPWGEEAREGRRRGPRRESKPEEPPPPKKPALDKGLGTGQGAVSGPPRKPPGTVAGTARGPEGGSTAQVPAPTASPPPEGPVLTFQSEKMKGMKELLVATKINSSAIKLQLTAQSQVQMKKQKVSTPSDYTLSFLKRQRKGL
Excerpt: (§1) • 1. Objective: To evaluate the inhibitory activity of compounds against wild-type Menin protein (Menin-WT) and its mutant variants (Menin-M327V, Menin-M327I, Menin-T349M, Menin-S160T, Menin-S160C, Menin-G331R, and Menin-G331D). • 2. Experimental Principle: The experiment employed fluorescence polarization (FP) to detect the binding of wild-type Menin protein and its mutant variants to MLL peptide. In the absence of inhibitors, binding of wild-type Menin protein and its mutant variants to MLL peptide generates a high FP signal; upon addition of inhibitors, the binding between Menin proteins and MLL peptide is disrupted, resulting in a low FP signal. • 3. Experimental Materials: Final concentration of wild-type Menin protein and its mutant variants: 8 nM; final concentration of MLL peptide: 4 nM. Assay buffer: 50 mM Tris-HCl (pH 8.0), 120 mM NaCl, 0.005% CA-630, 2 mM DTT. • 4. […] The plate was centrifuged at 1000 rpm for 60 seconds. Subsequently, 10 µL of MLL peptide was added to each assay well. The plate was centrifuged at 1000 rpm for 60 seconds and sealed with a sealing membrane. After incubation at 23°C for 60 minutes, the plate was read using a PerkinElmer Envision reader. Data Analysis: [formula]
(§2) Curve fitting: XLFIT software was used for curve fitting, employing a four-parameter logistic model with percent inhibition versus log(compound concentration) as variables.

Menin-G331R = molecular target: T2, Menin-G331R (Homo sapiens, UniProt O00255, G326R); experiment: Fluorescence polarization assay of Menin binding to MLL peptide, G331R mutant; conditions: FP, 8 nM Menin, 4 nM MLL peptide
T2 sequence (O00255 1-615 isoform O00255-1 G331R): T1 sequence (O00255 1-615 isoform O00255-1 T349M) with G331R, M349T
Excerpt: as §1, §2

Row | SMILES | IC50 (MV-4-11 cells) [nM] | IC50 (Menin-T349M) [nM] | IC50 (Menin-G331R) [nM]
1 | CCN(C(=O)c1cc(F)ccc1N1CCN([C@@H]2CCN([C@H](CCCN(C)CCOC)C(C)C)C2)c2ncncc21)C(C)C [Example 3] | 10.1 | 46.7 | 36.7
2 | CCN(C(=O)c1cc(F)ccc1Oc1cncnc1N1CC2(CCN(C[C@H]3CC[C@H](NS(=O)(=O)CC)CC3)CC2)C1)C(C)C [SNDX-5613, revumenib] | 14.4 | 271 | 101
